Counter-ions that a name gives are not always drawn. Like-named read-outs stand apart in the source and are kept apart here.
Columns and labels:
[1] = molecular target: T1, human histamine H3 receptor (Homo sapiens, UniProt Q9Y5N1); assay: functional [35S]GTPγS binding assay (antagonist potency, inhibition of RAMHA-stimulated binding); format: biochemical; details: for [35S]GTPγS binding Ki(nM): functional Ki from full dose-response IC50 by Cheng-Prusoff, 10 nM RAMHA, re-synthesized compounds
T1 construct: expressed in transfected cells
Experimental: CHO-cells, stably expressing the human histamine H3 receptor, were harvested and membranes were prepared by threefold homogenization in a HEPES buffer (20 mM HEPES, 0.1-10 mM EDTA; pH 7.4). […] The hits were subsequently tested in full dose-response curves for functional IC50 determinations. After 2 h incubation at RT with gentle shaking of the plate, the plate was centrifuged at 370 RCF for 10 min and subsequently the radioactivity was counted in a Packard TopCount-NXT.
The IC50 values were calculated by non-linear regression analysis using GraphPad Prism.

[2] = read-out: [35S]GTPγS binding Ki

T1 sequence (Q9Y5N1 whole entry): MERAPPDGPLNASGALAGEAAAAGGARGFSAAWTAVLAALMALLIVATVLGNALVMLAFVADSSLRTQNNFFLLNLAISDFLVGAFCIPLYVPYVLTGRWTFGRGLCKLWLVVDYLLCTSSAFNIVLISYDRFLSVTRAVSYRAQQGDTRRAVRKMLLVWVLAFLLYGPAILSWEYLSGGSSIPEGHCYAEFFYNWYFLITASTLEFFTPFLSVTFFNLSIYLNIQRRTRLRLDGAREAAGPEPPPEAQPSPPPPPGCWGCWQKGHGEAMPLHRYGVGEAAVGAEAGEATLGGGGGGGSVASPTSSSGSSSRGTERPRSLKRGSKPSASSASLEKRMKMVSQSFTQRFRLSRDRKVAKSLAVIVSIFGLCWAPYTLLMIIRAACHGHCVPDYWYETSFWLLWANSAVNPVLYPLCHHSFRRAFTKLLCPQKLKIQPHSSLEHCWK

Compound | melting point [°C] | inhibition at 3.5 µM [1] [%] | Ki [1, 2] [nM] | other results
O=C(c1cc2ccccc2s1)N1CCN(CCCN2CCCCC2)CC1 (as salt: hydrochloride) (hydrate or solvate) [Compound A11B12] | 265 to 267 |  |  | 
O=C(Cc1ccc(-c2ccccc2)cc1)N1CCN(CCCN2CCCCC2)CC1 (as salt: hydrochloride) (hydrate or solvate) [Compound A15B12] | 274 to 276 |  |  | 
O=C(Cc1c[nH]c2ccccc12)N1CCN(CCCN2CCCCC2)CC1 (as salt: hydrochloride) [Compound A14B12] | 256 to 258 |  |  | 
O=C(c1cc2ccccc2s1)N1CCN(CCCN2CCCCC2)CC1 [Compound A11B12] |  | 57 | 35 | 
O=C(Cc1c[nH]c2ccccc12)N1CCN(CCCN2CCCCC2)CC1 [Compound A14B12] |  | 73 |  | Ki [1]: 10 nM; [35S]GTPγS binding Ki(nM) [1]: low nanomolar range
O=C(Cc1ccc(-c2ccccc2)cc1)N1CCN(CCCN2CCCCC2)CC1 [Compound A15B12] |  | 56 |  | Ki [1]: 51 nM

Now from value to compound, other results behind:

melting point [°C] | inhibition at 3.5 µM [1] [%] | Ki [1, 2] [nM] | Compound | other results
253 to 255 |  |  | O=C(c1cc2ccccc2o1)N1CCN(CCCN2CCCCC2)CC1 (as salt: hydrochloride) (hydrate or solvate) [Compound A12B12, Benzofuran-2-yl-(4-(3-(piperidin-1-yl)propyl)piperazin-1-yl)methanone, dihydrochloride] | 
255 to 257 |  |  | COc1ccc2oc(C(=O)N3CCN(CCCN4CCCCC4)CC3)cc2c1 (as salt: hydrochloride) (hydrate or solvate) [Compound A13B12] | 
263 to 265 |  |  | O=C(CC1c2ccccc2-c2ccccc21)N1CCN(CCCN2CCCCC2)CC1 (as salt: hydrochloride) (hydrate or solvate) [Compound A18B12, 2-(9H-Fluoren-9-yl)-1-(4-(3-(piperidin-1-yl)propyl)piperazin-1-yl)ethanone, dihydrochloride] | 
274 to 276 |  |  | O=C(c1cccc(Oc2ccccc2)c1)N1CCN(CCCN2CCCCC2)CC1 (as salt: hydrochloride) [Compound A21B12] | 
 | 70 | 19 | O=C(c1cc2ccccc2o1)N1CCN(CCCN2CCCCC2)CC1 [Compound A12B12, Benzofuran-2-yl-(4-(3-(piperidin-1-yl)propyl)piperazin-1-yl)methanone, dihydrochloride] | 
 | 60 | 16 | COc1ccc2oc(C(=O)N3CCN(CCCN4CCCCC4)CC3)cc2c1 [Compound A13B12] | 
 | 74 | 7.4 | O=C(CC1c2ccccc2-c2ccccc21)N1CCN(CCCN2CCCCC2)CC1 [Compound A18B12, 2-(9H-Fluoren-9-yl)-1-(4-(3-(piperidin-1-yl)propyl)piperazin-1-yl)ethanone, dihydrochloride] | [35S]GTPγS binding Ki(nM) [1]: low nanomolar range
 | 62 | 23 | O=C(c1cccc(Oc2ccccc2)c1)N1CCN(CCCN2CCCCC2)CC1 [Compound A21B12] | 
